Data set [1] has as its target T1, Prostaglandin D2 receptor 2 (Homo sapiens, UniProt Q9Y5Y4).
T1 sequence (Q9Y5Y4 whole entry): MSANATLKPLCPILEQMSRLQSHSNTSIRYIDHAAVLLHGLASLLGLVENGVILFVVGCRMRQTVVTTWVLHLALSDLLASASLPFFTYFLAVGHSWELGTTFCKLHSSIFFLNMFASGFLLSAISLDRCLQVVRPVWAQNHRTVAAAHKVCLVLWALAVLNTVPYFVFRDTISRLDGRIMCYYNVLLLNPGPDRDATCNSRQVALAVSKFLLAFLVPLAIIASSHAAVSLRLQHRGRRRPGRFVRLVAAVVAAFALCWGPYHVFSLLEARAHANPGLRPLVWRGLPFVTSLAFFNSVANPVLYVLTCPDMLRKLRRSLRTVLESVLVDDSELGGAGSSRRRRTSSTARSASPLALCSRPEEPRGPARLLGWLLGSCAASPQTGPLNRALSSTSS
The experiment in a line: Antagonist activity at CRTh2 receptor (unknown origin) overexpressed in CHOK1 cell membranes assessed as inhibition of [35S]-GTPgammaS binding at 1 to 5 uM preincubated for 1 hr followed by 50 nM PGD2 and 0.1 nM [35S]-GTPgammaS addition measured after 2 hrs by liquid scintillation counting analysis relative to control. The format is functional, CHO-K1. In general terms: GTPγS is a poorly hydrolysed GTP analogue; its binding reports G protein activation.

A short description of data set [2]: Dissociation constant, acidic pKa of the compound by potentiometric assay. The format is physicochemical.
The nature of data set [3]: Dissociation constant, basic pKa of the compound by potentiometric assay. The format is physicochemical.
A short description of data set [4]: Thermodynamic solubility in pH 1.0 buffer after 24 hrs at 37 degC. Particulars: read-out: Therm_solubility. The format is physicochemical.
For data set [5], the target named is T2, Prostaglandin D2 receptor 2 (Homo sapiens) (UniProt Q9Y5Y4).
T2 sequence (whole entry): T1 sequence (Q9Y5Y4 whole entry)
The conditions noted are these: CHO-K1.
Description: Binding affinity to CRTh2 receptor (unknown origin) overexpressed in CHOK1 cell membranes assessed as dissociation half life at 10 X IC50 preincubated for 1 hr followed [35S]-GTPgammaS addition measured after 2 hrs by liquid scintillation counting analysis

Data set [6] can be described thus: Thermodynamic solubility in pH 7.4 buffer after 24 hrs at 37 degC. The format is physicochemical. Particulars: read-out: Therm_solubility.
Data set [7] in a line: Antagonist activity at CRTh2 receptor in human eosinophil assessed as inhibition of PGD2-induced cell shape change.
The nature of data set [8]: Apparent permeability of the compound at 20 uM incubated at 20 degC for 5 hrs in 2% DMSO containing PBS buffer solution by PAMPA assay. The format is physicochemical.
A short description of data set [9]: Lipophilicity, log D of the compound at pH 7.4 by shake flask method. The format is physicochemical. The conditions noted are these: buffer.
Data set [10] can be described thus: Permeability of the compound assessed as mass balance at 20 uM incubated at 20 degC for 5 hrs in 2% DMSO containing PBS buffer solution by PAMPA assay. The format is ADME. The conditions noted are these: read-out: Activity. Background: In PAMPA a lipid-coated filter parts donor from acceptor wells.
Data set [11] can be described thus: Drug metabolism in human liver microsomes at 5 uM in presence of NADPH after 30 mins at 37 degC. The conditions noted are these: read-out: Drug metabolism. The format is ADME. (In general: Microsomes from liver hold many membrane-bound enzymes, among them those of drug oxidation.)
Data set [12] in a line: Drug metabolism in rat liver microsomes assessed as phase-2 metabolism measured by glucuronidation level at 5 uM in presence of UDPGA after 2 hrs at 37 degC. The format is ADME. Particulars: read-out: Drug metabolism.
Data set [13] in a line: Drug metabolism in human liver microsomes assessed as phase-2 metabolism measured by glucuronidation level at 5 uM in presence of UDPGA after 2 hrs at 37 degC. The format is ADME. The conditions noted are these: read-out: Drug metabolism.
A short description of data set [14]: Cmax in rat at 1 mg/kg. The format is ADME, organism-based. Details: dose 1 mg/kg. Particulars: in vivo.
Data set [15] in a line: AUC (0 to infinity) in rat at 1 mg/kg. The format is ADME, organism-based. Set-up: time infinity, dose 1 mg/kg. The conditions noted are these: plasma.
The nature of data set [16]: Clearance in rat at 1 mg/kg. The format is ADME, organism-based. Set-up: dose 1 mg/kg. The conditions noted are these: in vivo.
Data set [17] is described as follows: Volume of distribution at steady state in rat at 1 mg/kg. The format is ADME, organism-based. Set-up: dose 1 mg/kg. Particulars: in vivo, read-out: Vdss.
The nature of data set [18]: Terminal half life in rat at 1 mg/kg. The format is ADME, organism-based. The conditions noted are these: in vivo, read-out: beta t1/2 (converted). Details: dose 1 mg/kg.
Data set [19] can be described thus: Mean residence time in rat at 1 mg/kg. The format is ADME, organism-based. Set-up: dose 1 mg/kg. Particulars: in vivo.
The nature of data set [20]: Drug metabolism in rat liver microsomes at 5 uM in presence of NADPH after 30 mins at 37 degC. The format is ADME. Particulars: read-out: Drug metabolism.
Data set [21] in a line: Oral bioavailability in rat at 10 mg/kg. The format is ADME, organism-based. The conditions noted are these: in vivo.

Bounds are passed on as bounds.

Usually IC50 stands for the point on the concentration scale where inhibition reaches its midpoint. As a reminder, the pKa is the pH at which an ionisable group is half protonated. A high value points to a weaker acid or stronger base. Consider `CCN(Cc1cc(C(F)(F)F)ccc1-c1nc(CC(=O)O)c2ccccn12)C(=O)C1CC1`, for which the IC50 in [1] turned out to be 0.082 µM. The pKa in data set [2] turned out to be 3; in data set [3], 4.8. Besides, in data set [4], the solubility thermodynamic at 24 h was greater than 1000 µg/mL. In addition, the T1/2 in data set [5] is 0.7 h.
As for `CCN(Cc1cc(C(F)(F)F)ccc1-c1cc(CC(=O)O)cc2cn(C)nc12)C(=O)C1CC1`, the 50% inhibitory concentration (IC50) in data set [1] is 0.048 µM. In data set [5], the T1/2 worked out at 1.2 h.
On to `CCN(Cc1cc(C(F)(F)F)ccc1-c1cn(CC(=O)O)c2cccnc12)C(=O)C1CC1`, for which the pKa in data set [2] stood at 2.5; in data set [3], 5.6. Besides, the solubility thermodynamic at 24 h in [4] and in [6] was greater than 1000 µg/mL in each case.
Turning to `CCN(Cc1cc(C(F)(F)F)ccc1-n1cc(CC(=O)O)c2ccccc21)C(=O)C1CC1`, the IC50 in data set [7] was 0.084 µM.
The Papp is a coefficient for how fast a substance crosses the barrier. Usually logD stands for lipophilicity at a set pH, counting ionised and neutral species. A high value points to higher lipophilicity. The Cmax is the highest concentration seen after dosing. What is called AUC(0-inf) is the area under the concentration-time curve extrapolated to infinity. Low values mean low exposure, high ones high exposure. In general, clearance refers to the volume of plasma or blood freed of the substance per unit of time. A high value points to efficient removal. The term MRT denotes the average time that molecules of a dose stay in the body. In the case of `CCN(Cc1cc(C(F)(F)F)ccc1-c1cc(CC(=O)O)ccc1OC)C(=O)C1CC1`, the IC50 in data set [1] is 0.016 µM. Moreover, the Papp at 5 h, 20 µM in [8] was determined as 1.5 ×10⁻⁶ cm/s. The logD in data set [9] was found to be 0.6. Also, the recovery at 5 h, 20 µM in data set [10] was determined as 91%. Also, in data set [11], the metabolised at 0.5 h, 5 µM is less than 5%. Moreover, the metabolised at 2 h, 5 µM in data set [12] stood at 21%; in data set [13] it was 28%. Also, in data set [14], the concentration peaked (Cmax) at 1530 ng/mL. For the same molecule, the AUC(0-inf) in [15] was found to be 2420 ng·h/mL. This molecule also had a clearance in data set [16] of 6.9 mL/min/kg. In addition, in [17], the Vd was 2 L/kg. Also, the half-life in [18] was 5.9 h. Moreover, the MRT in data set [19] was found to be 4.7 h.
Consider `CCN(Cc1cc(C(F)(F)F)ccc1-c1cc(CC(=O)O)cn2nccc12)C(=O)C1CC1`, for which the IC50 in data set [1] came to 0.247 µM.
Consider `CCN(Cc1cc(C(F)(F)F)ccc1-c1cn(CC(=O)O)c2ccncc12)C(=O)C1CC1`, for which, in data set [1], the IC50 amounted to 0.043 µM. Also, the pKa in data set [2] turned out to be 2.4; in [3], 7.8. Moreover, the T1/2 in [5] stood at 1.1 h.
Turning to `CCN(Cc1cc(C(F)(F)F)ccc1-c1cc(CC(=O)O)n2cccnc12)C(=O)C1CC1`, the pKa in data set [2] was 3.7; in [3] it was 1.7. The solubility thermodynamic at 24 h in data set [4] and in data set [6] was greater than 1000 µg/mL throughout. Moreover, the IC50 in data set [7] amounted to 0.0014 µM.
`CCN(Cc1cc(C(F)(F)F)ccc1-c1cc(CC(=O)O)cn2cnnc12)C(=O)C1CC1`: the IC50 in [1] was found to be 0.398 µM.
As for `CCN(Cc1cc(C(F)(F)F)ccc1-c1cc(CC(=O)O)c2ccnn2c1)C(=O)C1CC1`, the IC50 in [1] is 0.123 µM. In data set [5], this molecule yielded a T1/2 of 0.2 h.
For `CCN(Cc1cc(C(F)(F)F)ccc1-c1cc(CC(=O)O)cn2ccnc12)C(=O)C1CC1` the same measures were 0.159 µM and 0.7 h.
In the case of `CCN(Cc1cc(C(F)(F)F)ccc1-n1cc(CC(=O)O)c2cccnc21)C(=O)C1CC1`, the pKa was 2.4 in data set [2] and 4.2 in data set [3]. For the same molecule, the solubility thermodynamic at 24 h in [4] and in [6] was greater than 1000 µg/mL throughout. For the same molecule, in data set [8], the Papp at 5 h, 20 µM came to 1.1 ×10⁻⁶ cm/s. The logD in [9] is 0.5. Moreover, in data set [10], the recovery at 5 h, 20 µM was found to be 80%. Besides, the metabolised at 2 h, 5 µM in data set [12] was 6%. In data set [14], this molecule registered a Cmax of 926 ng/mL. Further, in data set [15], the AUC(0-inf) worked out at 885 ng·h/mL. Further, the clearance in data set [16] worked out at 19 mL/min/kg. Further, the Vd in data set [17] stood at 3.9 L/kg. The half-life in data set [18] was 5.3 h. Also, the MRT in data set [19] was 3.4 h.
Consider `CCN(Cc1cc(C(F)(F)F)ccc1-c1cc(CC(=O)O)c2cccn2c1)C(=O)C1CC1`, for which the IC50 in [1] was determined as 0.262 µM.
In data set [5], `CCN(Cc1cc(C(F)(F)F)ccc1-c1cc(CC(=O)O)c2ccncn12)C(=O)C1CC1` returned a T1/2 of 1.5 h.
Take `CCN(Cc1cc(C(F)(F)F)ccc1-c1cc(CC(=O)O)cc2cnn(C)c12)C(=O)C1CC1`: in [1], the IC50 turned out to be 0.048 µM. The molecule also returned a T1/2 in data set [5] of 1.4 h.
As usually defined, the bioavailability is dose-corrected exposure relative to a reference, in per cent. For the molecule `CCN(Cc1cc(C(F)(F)F)ccc1-c1cn(CC(=O)O)c2ccccc12)C(=O)C1CC1`, the solubility thermodynamic at 24 h in data set [4] is less than 1 µg/mL; in data set [6], greater than 1000 µg/mL. Also, in [8], the Papp at 5 h, 20 µM came out at 0.6 ×10⁻⁶ cm/s. Moreover, in data set [9], the logD came out at 1.4. In addition, the recovery at 5 h, 20 µM in data set [10] was found to be 71%. Moreover, the metabolised at 0.5 h, 5 µM in data set [20] was less than 5%. In addition, the metabolised at 2 h, 5 µM in [12] worked out at 32%. Besides, in data set [14], the Cmax was 571 ng/mL. In data set [15], this molecule gave an AUC(0-inf) of 559 ng·h/mL. This molecule also gave a clearance in data set [16] of 30 mL/min/kg. Besides, the Vd in data set [17] worked out at 2.9 L/kg. Moreover, the half-life in data set [18] is 1.5 h. The MRT in [19] turned out to be 1.6 h. In addition, the bioavailability in data set [21] was determined as 46%. The T1/2 in data set [5] was found to be 4 h.
`CCN(Cc1cc(C(F)(F)F)ccc1-c1nn(CC(=O)O)c2ccccc12)C(=O)C1CC1` gave a pKa in [2] of 2.8. For the same molecule, the solubility thermodynamic at 24 h was less than 1 µg/mL in data set [4] and greater than 1000 µg/mL in [6]. In addition, the Papp at 5 h, 20 µM in [8] was found to be 0.18 ×10⁻⁶ cm/s. The molecule further registered a logD in data set [9] of 0.8. Moreover, the recovery at 5 h, 20 µM in data set [10] is 81%. For the same molecule, the metabolised at 0.5 h, 5 µM in [20] and in data set [11] was less than 5% each time. Moreover, the metabolised at 2 h, 5 µM in data set [12] was found to be 12%; in [13] it was 35%. Also, the highest level in [14] (Cmax) was 550 ng/mL. In addition, in data set [15], the AUC(0-inf) is 440 ng·h/mL. Moreover, the clearance in data set [16] turned out to be 38 mL/min/kg. For the same molecule, in data set [17], the Vd is 5.4 L/kg. The half-life in data set [18] is 2.4 h. In [19], this molecule gave an MRT of 2.4 h. This molecule showed a T1/2 in data set [5] of 1.6 h. In addition, the IC50 in [7] is 0.047 µM.

For the origin of these results see ChEMBL document CHEMBL3352694, “Structure-activity relationships (SAR) and structure-kinetic relationships (SKR) of bicyclic heteroaromatic acetic acids as potent CRTh2 antagonists I” (Bioorg Med Chem Lett, 2014).
